Reference: PubChem BioAssay AID2060905 (Molecular Pharmacology Branch, DTP, NCI, 2025)

Test system: 282377-053-R-J1-PDC complex spheroid viability
Test: Anticancer human tumor 282377-053-R-J1-PDC patient-derived colon adenocarcinoma cell line growth inhibition [RAS]
Conditions: for viability, T/C: stronger effect = lower value
From the text: RAS pathway inhibitors in Combinations in Complex Spheroids
A high-throughput screen of multi-cell type tumor spheroids was designed to identify active combinations of RAS pathway inhibitors and targeted small molecules. Complex spheroids include a stromal component modeled by human endothelial cells (HUVEC) and fibroblasts modeled by human mesenchymal stem cells (MSCs). The concentration ranges selected for each drug and investigational agent were based upon clinically achievable concentrations if the clinical Cmax of the agent was known.
Compounds. The drugs and investigational agents: abemaciclib (NSC768073), cobimetinib (NSC768068), divarasib (GDC6063, NSC841802), docetaxel (NSC628503), GDC-1971 (RLY-1971, NSC841576), gemcitabine (NSC613327), inavolisib (NSC800729), ipatasertib (NSC767898), KB-0742 (NSC834161), MRTX-1133 (NSC836407), osimertinib (NSC779217), RMC-4630 (NSC839698), RMC-6236 (NSC851965), RMC-6291 (NSC852671), Ro-3306 (NSC812927), sapanisertib (NSC764658), SN-38 (NSC673596), staurosporine (NSC755774), SY5609 (NSC837396), and tovorafenib (DAY101, NSC766906), were obtained from the National Cancer Institute (NCI) Developmental Therapeutics Program Chemical Repository. The FDA-approved anticancer drug set is available from the NCI Developmental Therapeutics Program. […] The stock solutions were prepared in dimethyl sulfoxide (DMSO, Sigma-Aldrich, St. Louis, MO, cat. D2650) at 800-fold the tested concentration and stored at -70 degrees C prior to their use. All drugs and investigational agents were tested over a range starting from a high concentration at or near the clinical Cmax and decreasing in half-log increments. If the clinical Cmax for an agent had not been determined, the highest concentration tested was 10 microM.
Cell Culture. All cells were maintained in an incubator at 37 degrees C and 5% CO2 with 95% humidity. The PDC lines were cultured according to standard operating procedures established by the NCI PDMR. All PDCs were thawed and cultured in Matrigel-coated flasks prepared with a working solution of 1X Ham's F-12 nutrient mix, without supplementation (Invitrogen, Waltham, MA, cat. 11765054), 100 U/mL penicillin-streptomycin (Invitrogen, cat. 15140122), and 2.5% Matrigel (Corning Inc., Corning, NY, cat. 354248) for the first three passages. The 362531-283-R-J2-PDC and 782815-120-R-J1-PDC lines were cultured in 6C/Colon 1B media, which includes advanced DMEM/F-12 (Thermo Fisher Scientific, cat. 12634028), 10 mM HEPES (Thermo Fisher Scientific, cat. 15630080), 1X GlutaMAX supplement (Thermo Fisher Scientific, cat. 35050061), 0.1 mg/mL primocin (InvivoGen, San Diego, CA, cat. ant-pm-2), 10% defined fetal bovine serum, heat inactivated (HyClone Laboratories Inc., Logan, UT, cat. SH30070.03HI), 50% L-WRN conditioned media (ATCC, cat. CRL-3276), 1.25 mM N-Acetyl-L-cysteine (Sigma-Aldrich, cat. A9165), 10 mM nicotinamide (Sigma-Aldrich, cat. N0636), 1X B-27 supplement (Thermo Fisher Scientific, cat. 17504044), 1X N-2 supplement (Thermo Fisher Scientific, cat. 17502048), 50 ng/mL human EGF (Thermo Fisher Scientific, cat. PHG0311), and 10 microM Y-27632 dihydrochloride (Tocris Bioscience, cat. 1254). The K12877-001-R-J1-PDC line was cultured in 6I media, which includes all 6C/Colon 1B media plus 10 ng/mL human FGF-10 (PeproTech, cat. 100-26), 1 ng/mL human FGF-2 (PeproTech, cat. 100-18B), 1 µM prostaglandin E2 (Tocris Bioscience, cat. 2296), […] hydrocortisone (Sigma-Aldrich, cat. H4001), and […] bovine insulin (Sigma-Aldrich, cat. I6634). The K86415-001-R-J1-PDC line was cultured in 6D media, which includes all 6C/Colon 1B media components minus the L-WRN conditioned media. The 485176-168-R4-J1-PDC was cultured in PANC media, which includes all 6C/Colon 1B media plus 100 ng/mL human FGF-10 (PeproTech, cat. 100-26), 500 nM SB-431542 (Selleckchem, cat. S1067), and 10 nM gastrin (Tocris Bioscience, cat. 3006). […]

[1] = curve of first compound, second compound 0.00316 µM
[2] = curve of first compound, second compound 0.01 µM
[3] = curve of first compound, second compound 0.0316 µM
[4] = curve of first compound, second compound 0.1 µM
[5] = curve of first compound, second compound 0.316 µM
[6] = curve of first compound, second compound 1 µM
[7] = second compound 0.00316 µM, first compound 0.0316 µM
[8] = second compound 0.00316 µM, first compound 0.1 µM
[9] = second compound 0.00316 µM, first compound 0.316 µM
[10] = second compound 0.00316 µM, first compound 1 µM
[11] = second compound 0.00316 µM, first compound 3.16 µM
[12] = second compound 0.00316 µM, first compound 10 µM
[13] = second compound 0.01 µM, first compound 0.0316 µM
[14] = second compound 0.01 µM, first compound 0.1 µM
[15] = second compound 0.01 µM, first compound 0.316 µM
[16] = second compound 0.01 µM, first compound 1 µM
[17] = second compound 0.01 µM, first compound 3.16 µM
[18] = second compound 0.01 µM, first compound 10 µM
[19] = second compound 0.0316 µM, first compound 0.0316 µM
[20] = second compound 0.0316 µM, first compound 0.1 µM
[21] = second compound 0.0316 µM, first compound 0.316 µM
[22] = second compound 0.0316 µM, first compound 1 µM
[23] = second compound 0.0316 µM, first compound 3.16 µM
[24] = second compound 0.0316 µM, first compound 10 µM
[25] = second compound 0.1 µM, first compound 0.0316 µM
[26] = second compound 0.1 µM, first compound 0.1 µM
[27] = second compound 0.1 µM, first compound 0.316 µM
[28] = second compound 0.1 µM, first compound 1 µM
[29] = second compound 0.1 µM, first compound 3.16 µM
[30] = second compound 0.1 µM, first compound 10 µM
[31] = second compound 0.316 µM, first compound 0.0316 µM
[32] = second compound 0.316 µM, first compound 0.1 µM
[33] = second compound 0.316 µM, first compound 0.316 µM
[34] = second compound 0.316 µM, first compound 1 µM
[35] = second compound 0.316 µM, first compound 3.16 µM
[36] = second compound 0.316 µM, first compound 10 µM
[37] = second compound 1 µM, first compound 0.0316 µM
[38] = second compound 1 µM, first compound 0.1 µM
[39] = second compound 1 µM, first compound 0.316 µM
[40] = second compound 1 µM, first compound 1 µM
[41] = second compound 1 µM, first compound 3.16 µM
[42] = second compound 1 µM, first compound 10 µM
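Note: spheroids exposed to agents for seven days before readout.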
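Throughout, for viability, T/C: luminescence viability as percent of DMSO vehicle control wells.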

CC1(O)CCCC1n1c(=O)c(C(F)F)cc2cnc(NC3CCN(S(C)(=O)=O)CC3)nc21 (stereo unspecified) + C=CC(=O)N1CCN(c2nc(OCC3CCCN3C)nc3c(F)c(-c4nc(N)cc(C)c4C(F)(F)F)c(Cl)cc23)C(C)C1
IC50 [1]: 6.01 µM
IC50 [2]: 6.03 µM
IC50 [3]: 5.93 µM
IC50 [4]: 6.22 µM
IC50 [5]: 6.21 µM
IC50 [6]: 6.48 µM
viability, T/C [7]: 124%
viability, T/C [8]: 124%
viability, T/C [9]: 134%
viability, T/C [10]: 106%
viability, T/C [11]: 109%
viability, T/C [12]: 2.69%
viability, T/C [13]: 118%
viability, T/C [14]: 113%
viability, T/C [15]: 107%
viability, T/C [16]: 122%
viability, T/C [17]: 110%
viability, T/C [18]: 2.79%
viability, T/C [19]: 102%
viability, T/C [20]: 141%
viability, T/C [21]: 123%
viability, T/C [22]: 110%
viability, T/C [23]: 107%
viability, T/C [24]: 3.33%
viability, T/C [25]: 107%
viability, T/C [26]: 117%
viability, T/C [27]: 124%
viability, T/C [28]: 118%
viability, T/C [29]: 119%
viability, T/C [30]: 2.9%
viability, T/C [31]: 108%
viability, T/C [32]: 112%
viability, T/C [33]: 125%
viability, T/C [34]: 111%
viability, T/C [35]: 128%
viability, T/C [36]: 2.56%
viability, T/C [37]: 131%
viability, T/C [38]: 131%
viability, T/C [39]: 135%
viability, T/C [40]: 132%
viability, T/C [41]: 129%
viability, T/C [42]: 2.51%

CCC(CC)c1cc(NC2CCC(N)C2)n2nccc2n1 (stereo unspecified) + C=CC(=O)N1CCN(c2nc(OCC3CCCN3C)nc3c(F)c(-c4nc(N)cc(C)c4C(F)(F)F)c(Cl)cc23)C(C)C1
IC50 [1]: 1.94 µM
IC50 [2]: 1.9 µM
IC50 [3]: 1.82 µM
IC50 [4]: 1.69 µM
IC50 [5]: 1.86 µM
IC50 [6]: 1.89 µM
viability, T/C [7]: 117%
viability, T/C [8]: 101%
viability, T/C [9]: 93.8%
viability, T/C [10]: 116%
viability, T/C [11]: 7.62%
viability, T/C [12]: 2.24%
viability, T/C [13]: 110%
viability, T/C [14]: 98.1%
viability, T/C [15]: 92%
viability, T/C [16]: 115%
viability, T/C [17]: 7.28%
viability, T/C [18]: 1.55%
viability, T/C [19]: 103%
viability, T/C [20]: 97%
viability, T/C [21]: 96.3%
viability, T/C [22]: 94.5%
viability, T/C [23]: 8.89%
viability, T/C [24]: 1.69%
viability, T/C [25]: 124%
viability, T/C [26]: 107%
viability, T/C [27]: 113%
viability, T/C [28]: 85.3%
viability, T/C [29]: 7.78%
viability, T/C [30]: 1.54%
viability, T/C [31]: 111%
viability, T/C [32]: 105%
viability, T/C [33]: 109%
viability, T/C [34]: 100%
viability, T/C [35]: 7.41%
viability, T/C [36]: 1.9%
viability, T/C [37]: 109%
viability, T/C [38]: 103%
viability, T/C [39]: 123%
viability, T/C [40]: 102%
viability, T/C [41]: 7.89%
viability, T/C [42]: 2.25%

C[C@@H](NC(=O)c1ncnc(N)c1Cl)c1ncc(C(=O)Nc2cc(C(F)(F)F)c(Cl)cn2)s1
viability, T/C (compound 0.0316 µM): 92.9% [middle of 4 runs]
viability, T/C (compound 0.1 µM): 94.9% [middle of 4 runs]
viability, T/C (compound 0.316 µM): 92.8% [middle of 4 runs]
viability, T/C (compound 1 µM): 94.9% [middle of 4 runs]
viability, T/C (compound 3.16 µM): 81.1% [middle of 4 runs]
viability, T/C (compound 10 µM): 72.1% [middle of 4 runs]
IC50 (curve of compound): > 10 µM
